Data taken from US4652638A, “3-O-acyl-4"-deoxydesmycosin derivatives” (Toyo Jozo Kabushiki Kaisha, priority 1983, dated 1987).
Converted amounts (≈) assume the structure as drawn. Where two headings read alike, the source gives them in different places.

Experiments:
Experiment in all cases: MIC (minimum inhibitory concentration)
Format in all cases: cell-based
[1] = test system: Staphylococcus aureus ATCC 6538P; details: ATCC6538P
[2] = test system: Staphylococcus aureus MS353
[3] = test system: Staphylococcus aureus MS353 C36; details: MS353C36
[4] = test system: Staphylococcus aureus MS353 A0*; details: * clinical isolate, macrolide-resistant bacteria A group
[5] = test system: Staphylococcus aureus 0119*
[6] = test system: Staphylococcus aureus 0127*
[7] = test system: Staphylococcus epidermidis sp-al-1; details: SPAL1
[8] = test system: Streptococcus pyogenes N.Y.5
[9] = test system: Streptococcus pyogenes 1022*
[10] = test system: Streptococcus faecalis 1501; details: Enterococcus faecalis
[11] = test system: Streptococcus agalaactiae 1020
[12] = test system: Sarcina lutea ATCC 9341; details: Micrococcus luteus, ATCC9341
[13] = test system: Micrococcus flavus ATCC 10240; details: ATCC10240
[14] = test system: Corynebacterium diphtheriae P.Y.8
[15] = test system: Bacillus subtilis ATCC 6633; details: ATCC6633
[16] = test system: Escherichia coli NIHJ-JC2; details: NIHJJC2
[17] = test system: Escherichia coli B
[18] = test system: Klebsiella pneumoniae ATCC 10031; details: ATCC10031
[19] = test system: Salmonella typhosa H901; details: Salmonella enterica
[20] = test system: Salmonella enteritidis Gaertner; details: Salmonella enterica
[21] = test system: Shigella flexineri type 3a; details: TYPE3A
[22] = test system: Shigella sonnei E33
[23] = test system: Proteus vulgaris OX19
[24] = test system: Serratia marcescens
[25] = test system: Pseudomonas aeruginosa IAM 1095; details: IAM1095
[26] = Staphylococcus epidermidis sp-al-1, read-out: MIC
[27] = Streptococcus faecalis 1501, read-out: MIC
[28] = Streptococcus agalaactiae 1020, read-out: MIC
[29] = Sarcina lutea ATCC 9341, read-out: MIC
[30] = Micrococcus flavus ATCC 10240, read-out: MIC
[31] = Bacillus subtilis ATCC 6633, read-out: MIC
[32] = Escherichia coli NIHJ-JC2, read-out: MIC
[33] = Escherichia coli B, read-out: MIC
[34] = Klebsiella pneumoniae ATCC 10031, read-out: MIC
[35] = Salmonella enteritidis Gaertner, read-out: MIC
[36] = Pseudomonas aeruginosa IAM 1095, read-out: MIC
[37] = Salmonella typhosa H901, read-out: MIC

Structure (SMILES) | MIC [1] [mg/L] | MIC [2] [mg/L] | MIC [3] [mg/L] | MIC [4] [mg/L] | MIC ([5]; Staphylococcus aureus) [mg/L] | MIC ([6]; Staphylococcus aureus) [mg/L] | MIC [8] [mg/L] | MIC [12, 29] [mg/L] | MIC ([19]; TYPHOSA) [mg/L] | MIC [21] [mg/L] | MIC [22] [mg/L] | MIC ([7]; Staphylococcus epidermidis) [mg/L] | MIC [10]; 1501 [mg/L] | MIC ([11]; Streptococcus, 1020) [mg/L] | MIC ([13]; Micrococcus flavus) [mg/L] | MIC [14] [mg/L] | MIC ([15]; Bacillus subtilis) [mg/L] | MIC ([18]; Klebsiella pneumoniae) [mg/L] | MIC ([20]; ENTERITIDIS) [mg/L] | MIC [23] [mg/L] | other results
CCC1OC(=O)CC(OC(=O)CC(C)C)C(C)C(OC2OC(C)C(O)C(N(C)C)C2O)C(CC=O)CC(C)C(=O)C=CC(C)=CC1COC1OC(C)CC(OC)C1OC (centres unmarked) [Example 4, 3-O-isovaleryl-4"-deoxydesmycosin] | 0.4 (≈ 0.476 µM) | 0.4 (≈ 0.476 µM) | 0.4 (≈ 0.476 µM) | > 100 | > 100 | > 100 | ≤ 0.05 | ≤ 0.05 | > 100 | 50 (≈ 59.5 µM) | > 100 |  |  |  |  |  |  |  |  |  | MIC [7, 26]: 0.1 mg/L (≈ 0.119 µM); MIC ([9]; Streptococcus pyogenes): > 100 mg/L; MIC [10, 27]: 0.4 mg/L (≈ 0.476 µM); MIC [11, 28]: ≤ 0.05 mg/L; MIC [13, 30]: ≤ 0.05 mg/L; MIC ([14]; read-out: MIC): ≤ 0.05 mg/L; MIC [15, 31]: 0.2 mg/L (≈ 0.238 µM); MIC [16, 32]: > 100 mg/L; MIC [17, 33]: > 100 mg/L; MIC [18, 34]: 25 mg/L (≈ 29.8 µM); MIC [20, 35]: > 100 mg/L; MIC ([23]; read-out: MIC): 50 mg/L (≈ 59.5 µM); MIC ([24]; read-out: MIC): > 100 mg/L; MIC [25, 36]: > 100 mg/L
CC[C@H]1OC(=O)C[C@@H](O)[C@H](C)[C@@H](O[C@@H]2O[C@H](C)[C@@H](O[C@H]3C[C@@](C)(O)[C@@H](O)[C@H](C)O3)[C@H](N(C)C)[C@H]2O)[C@@H](CC=O)C[C@@H](C)C(=O)/C=C/C(C)=C/[C@@H]1CO[C@@H]1O[C@H](C)[C@@H](O)[C@@H](OC)[C@H]1OC [Tylosin, reference compound] |  | 0.8 (≈ 0.873 µM) | 0.4 (≈ 0.437 µM) | > 100 | > 100 | > 100 | 0.1 (≈ 0.109 µM) | ≤ 0.05 | > 100 | 50 (≈ 54.6 µM) | > 100 | 0.4 (≈ 0.437 µM) | 0.8 (≈ 0.873 µM) | 0.2 (≈ 0.218 µM) | ≤ 0.05 | ≤ 0.05 | 0.2 (≈ 0.218 µM) | 50 (≈ 54.6 µM) | > 100 | > 100 | MIC ([9]; Streptococcus pyogenes): > 100 mg/L; MIC ([16]; Escherichia coli): > 100 mg/L; MIC ([17]; Escherichia coli): > 100 mg/L; MIC [24]: > 100 mg/L; MIC ([25]; Pseudomonas aeruginosa): > 100 mg/L
CCC1OC(=O)CC(OC(=O)Cc2ccccc2)C(C)C(OC2OC(C)C(O)C(N(C)C)C2O)C(CC=O)CC(C)C(=O)C=CC(C)=CC1COC1OC(C)CC(OC)C1OC (centres unmarked) [Example 6, 3-O-phenylacetyl-4"-deoxydesmycosin] | 0.1 (≈ 0.114 µM) | 0.2 (≈ 0.229 µM) | 0.1 (≈ 0.114 µM) | > 100 | > 100 | > 100 | 0.1 (≈ 0.114 µM) |  |  | 50 (≈ 57.2 µM) | > 100 | ≤ 0.05 | 0.4 (≈ 0.458 µM) | 0.1 (≈ 0.114 µM) | ≤ 0.05 | ≤ 0.05 | 0.1 (≈ 0.114 µM) | 25 (≈ 28.6 µM) | > 100 | 50 (≈ 57.2 µM) | MIC [12]: ≤ 0.05 mg/L; MIC ([16]; Escherichia coli): > 100 mg/L; MIC ([17]; Escherichia coli): > 100 mg/L; MIC [19, 37]: > 100 mg/L; MIC [24]: > 100 mg/L; MIC ([25]; Pseudomonas aeruginosa): > 100 mg/L
CC[C@H]1OC(=O)[C@H](C)[C@@H](O[C@H]2C[C@@](C)(OC)[C@@H](O)[C@H](C)O2)[C@H](C)[C@@H](O[C@@H]2O[C@H](C)C[C@H](N(C)C)[C@H]2O)[C@](C)(O)C[C@@H](C)C(=O)[C@H](C)[C@@H](O)[C@]1(C)O [Erythromycin, reference compound] | 0.2 (≈ 0.273 µM) | 0.2 (≈ 0.273 µM) | > 100 | > 100 | > 100 | > 100 | ≤ 0.05 | ≤ 0.05 | 100 (≈ 136 µM) | 12.5 (≈ 17 µM) | 100 (≈ 136 µM) | 0.2 (≈ 0.273 µM) | 0.2 (≈ 0.273 µM) | ≤ 0.05 | 0.1 (≈ 0.136 µM) | ≤ 0.05 | 0.1 (≈ 0.136 µM) | 6.3 (≈ 8.58 µM) | 100 (≈ 136 µM) | 50 (≈ 68.1 µM) | MIC ([9]; Streptococcus pyogenes): > 100 mg/L; MIC [16, 32]: 100 mg/L (≈ 136 µM); MIC [17, 33]: > 100 mg/L; MIC [24]: 100 mg/L (≈ 136 µM); MIC ([25]; Pseudomonas aeruginosa): 100 mg/L (≈ 136 µM)
CCC1OC(=O)CC(OC(=O)Cc2ccccc2)C(C)C(OC2OC(C)C(O)C(N(C)C)C2O)C(C)CC(C)C(=O)C=CC(C)=CC1COC1OC(C)CC(OC)C1OC (centres unmarked) [Example 10, 3-O-phenylacetyl-19-deformyl-4"-deoxydesmycosin] | 0.1 (≈ 0.118 µM) | 0.1 (≈ 0.118 µM) | 0.1 (≈ 0.118 µM) | > 100 | > 100 | > 100 | ≤ 0.05 |  |  | 25 (≈ 29.5 µM) | > 100 | ≤ 0.05 | 3.1 (≈ 3.66 µM) | 0.4 (≈ 0.473 µM) | ≤ 0.05 | ≤ 0.05 | 0.2 (≈ 0.236 µM) | 12.5 (≈ 14.8 µM) | > 100 | 100 (≈ 118 µM) | MIC [12]: ≤ 0.05 mg/L; MIC ([16]; Escherichia coli): > 100 mg/L; MIC ([17]; Escherichia coli): > 100 mg/L; MIC [19, 37]: > 100 mg/L; MIC [24]: > 100 mg/L; MIC ([25]; Pseudomonas aeruginosa): > 100 mg/L
CCCC(=O)OC1CC(=O)OC(CC)C(COC2OC(C)CC(OC)C2OC)C=C(C)C=CC(=O)C(C)CC(CC=O)C(OC2OC(C)C(O)C(N(C)C)C2O)C1C (centres unmarked) [Example 3, 3-O-butyryl-4"-deoxydesmycosin] | 0.4 (≈ 0.484 µM) | 0.4 (≈ 0.484 µM) | 0.2 (≈ 0.242 µM) |  |  |  | ≤ 0.05 | ≤ 0.05 | > 100 | 50 (≈ 60.5 µM) | > 100 |  |  |  |  |  |  |  |  |  | MIC ([5]; Staphylococcus aureus 0119, * clinical isolate, macrolide-resistant bacteria A group, read-out: MIC): 25 mg/L (≈ 30.3 µM); MIC ([6]; Staphylococcus aureus 0127, * clinical isolate, macrolide-resistant bacteria A group, read-out: MIC): 25 mg/L (≈ 30.3 µM); MIC [7, 26]: ≤ 0.05 mg/L; MIC ([9]; Streptococcus pyogenes 1022, * clinical isolate, macrolide-resistant bacteria A group, read-out: MIC): 12.5 mg/L (≈ 15.1 µM); MIC [10, 27]: 0.2 mg/L (≈ 0.242 µM); MIC [11, 28]: 0.1 mg/L (≈ 0.121 µM); MIC [13, 30]: ≤ 0.05 mg/L; MIC ([14]; read-out: MIC): ≤ 0.05 mg/L; MIC [15, 31]: 0.1 mg/L (≈ 0.121 µM); MIC [16, 32]: > 100 mg/L; MIC [17, 33]: > 100 mg/L; MIC [18, 34]: 25 mg/L (≈ 30.3 µM); MIC [20, 35]: > 100 mg/L; MIC ([23]; read-out: MIC): 50 mg/L (≈ 60.5 µM); MIC ([24]; read-out: MIC): > 100 mg/L; MIC [25, 36]: > 100 mg/L
